# Reference: the supplement of paper PMC10307832
# What was measured:
# Assay in all cases: relative viability (nuclei count vs DMSO), 5 days (fraction); higher = more cells survive
# [1] = compound: Cc1ccc2nc(NCCN)c3ncc(C)n3c2c1 + Nc1ncn([C@H]2C[C@H](O)[C@@H](CO)O2)c(=O)n1 [Decitabine] (partner 2 µM)
# In short: (§1)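 Nuclei were stained with Hoechst during a one-step fixation (final 0.05% Triton X-100, 1% formaldehyde, 1 ug/ml Hoechst) carried out 5 days after dosing, then counted on 4× images. The cells, lung cancer lines in 1536-well plates, had been dosed by pin tool the day after seeding with one drug alone or a fixed anchor-drug dose plus five library-drug doses (not always all listed) in √10 steps. Relative viability is the nuclei count in treated wells divided by that in vehicle wells, and each value is the median of duplicate plates.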
# [2] = compound: Cc1ccc2nc(NCCN)c3ncc(C)n3c2c1 + CC(=O)Nc1cccc(-n2c(=O)n(C3CC3)c(=O)c3c(Nc4ccc(I)cc4F)n(C)c(=O)c(C)c32)c1 [Trametinib] (partner 0.02 µM)
# In short: as §1
# [3] = compound: Cc1ccc2nc(NCCN)c3ncc(C)n3c2c1 + N=C(N)NC(=N)NCCc1ccccc1 [Phenformin] (partner 250 µM)
# In short: as §1
# [4] = compound: O=C(/C=C/c1ccccc1)NC(NC(=S)Nc1cccc2cccnc12)C(Cl)(Cl)Cl [Salubrinal] + CC1(C)CCC(c2ccc(Cl)cc2)=C(CN2CCN(c3ccc(C(=O)NS(=O)(=O)c4ccc(N[C@H](CCN5CCOCC5)CSc5ccccc5)c(S(=O)(=O)C(F)(F)F)c4)cc3)CC2)C1 [Navitoclax] (partner 0.5 µM)
# In short: as §1
Cell Line,relative viability ([1]; first compound 0.04 µM),relative viability ([1]; first compound 0.1265 µM),relative viability ([1]; first compound 0.4 µM),relative viability ([1]; first compound 1.265 µM),relative viability ([1]; first compound 4 µM),relative viability ([2]; first compound 0.04 µM),relative viability ([2]; first compound 0.1265 µM),relative viability ([2]; first compound 0.4 µM),relative viability ([2]; first compound 1.265 µM),relative viability ([2]; first compound 4 µM),relative viability ([3]; first compound 0.04 µM),relative viability ([3]; first compound 0.1265 µM),relative viability ([3]; first compound 0.4 µM),relative viability ([3]; first compound 1.265 µM),relative viability ([3]; first compound 4 µM),relative viability ([4]; first compound 0.08 µM),relative viability ([4]; first compound 0.253 µM),relative viability ([4]; first compound 0.8 µM),relative viability ([4]; first compound 2.53 µM),relative viability ([4]; first compound 8 µM)
NCI-H1793,0.32,0.5,0.439,0.383,0.453,0.371,0.363,0.525,0.363,0.4,0.435,0.422,0.272,0.324,0.32,0.476,0.432,0.431,0.351,0.339
NCI-H2347,0.605,0.664,0.603,0.645,0.585,0.269,0.289,0.264,0.29,0.3,0.521,0.55,0.513,0.345,0.417,0.928,0.86,0.75,0.728,0.864
NCI-H1993,0.731,0.468,0.632,0.606,0.583,0.421,0.632,0.64,0.34,0.46,0.506,0.514,0.591,0.552,0.495,1.02,0.902,0.976,0.799,0.733
NCI-H322M,0.715,0.715,0.707,0.748,0.812,0.522,0.538,0.495,0.502,0.535,0.882,0.701,0.767,0.798,0.759,1.38,1.19,1.34,1.23,1.16
NCI-H838,0.494,0.461,0.428,0.44,0.427,0.561,0.507,0.45,0.507,0.612,0.655,0.602,0.587,0.543,0.568,1.35,1.21,1.22,1.15,1.23
HARA,0.492,0.758,0.651,0.419,0.546,0.637,0.648,0.41,0.723,0.761,0.437,0.449,0.388,0.342,0.453,1.05,1.18,1.13,1.16,1.11
NCI-H2087,0.308,0.362,0.249,0.285,0.299,0.18,0.208,0.194,0.16,0.204,0.464,0.491,0.423,0.482,0.477,1.04,1.02,1.11,0.964,0.945
NCI-H1437,0.581,0.526,0.596,0.495,0.498,0.578,0.463,0.445,0.415,0.381,0.289,0.298,0.327,0.298,0.278,1.14,1.06,1.16,1.08,1.09
